Source: ChEMBL document CHEMBL5131424, “Synthesis and evaluation of antibacterial and trypanocidal activity of derivatives of monensin A” (Bioorg Med Chem Lett, 2022)
≈ marks a conversion by molar mass, not a printed value.

Key:
Staphylococcus aureus [1] = experiment: Antibacterial activity against Staphylococcus aureus NCTC 4163; format: functional
Staphylococcus aureus [2] = experiment: Antibacterial activity against Staphylococcus aureus ATCC 25923; format: functional
Staphylococcus aureus [3] = experiment: Antibacterial activity against Staphylococcus aureus ATCC 6538; format: functional
Staphylococcus aureus [4] = experiment: Antibacterial activity against Staphylococcus aureus ATCC 29213; format: functional
[5] = tested on: Staphylococcus epidermidis; experiment: Antibacterial activity against Staphylococcus epidermidis ATCC 12228; format: functional
[6] = tested on: Staphylococcus epidermidis; experiment: Antibacterial activity against Staphylococcus epidermidis ATCC 35984; format: functional
Escherichia coli [7] = experiment: Antibacterial activity against Escherichia coli NCTC 10538; format: functional
Escherichia coli [8] = experiment: Antibacterial activity against Escherichia coli ATCC 25922; format: functional
Pseudomonas aeruginosa [9] = experiment: Antibacterial activity against Pseudomonas aeruginosa ATCC 15442; format: functional
Pseudomonas aeruginosa [10] = experiment: Antibacterial activity against Pseudomonas aeruginosa […]; format: functional
[11] = tested on: Staphylococcus epidermidis; experiment: Antibacterial activity against Staphylococcus epidermidis 825/19; format: functional
[12] = tested on: Staphylococcus epidermidis; experiment: Antibacterial activity against Staphylococcus epidermidis 829/19; format: functional
[13] = tested on: Staphylococcus epidermidis; experiment: Antibacterial activity against Staphylococcus epidermidis 830/19; format: functional
[14] = tested on: Staphylococcus epidermidis; experiment: Antibacterial activity against Staphylococcus epidermidis 834/19; format: functional
[15] = tested on: Staphylococcus epidermidis; experiment: Antibacterial activity against Staphylococcus epidermidis 840/19; format: functional
[16] = tested on: Staphylococcus epidermidis; experiment: Antibacterial activity against Staphylococcus epidermidis 845/19; format: functional
[17] = tested on: Staphylococcus epidermidis; experiment: Antibacterial activity against Staphylococcus epidermidis 848/19; format: functional
[18] = tested on: Staphylococcus epidermidis; experiment: Antibacterial activity against Staphylococcus epidermidis 851/19; format: functional
Trypanosoma brucei = experiment: Antitrypanosomal activity against bloodstream form of Trypanosoma brucei clone 427-221a measured after 24 hrs by resazurin dye based assay; format: functional
[19] = (§1) Cytotoxicity against human HL-60 cells assessed as reduction in cell viability measured after 24 hrs by resazurin dye based assay; format: toxicity; settings: HL-60 cells
HL-60 = experiment: as §1; format: toxicity; settings: hl-60, 24 h
[20] = Selectivity ratio of MIC for cytotoxicity against human HL-60 cells to MIC for antitrypanosomal activity against bloodstream form of Trypanosoma brucei clone 427-221a; format: toxicity, cell-based
[21] = Selectivity ratio of GI50 for cytotoxicity against human HL-60 cells to GI50 for antitrypanosomal activity against bloodstream form of Trypanosoma brucei clone 427-221a; format: toxicity, cell-based; settings: read-out: RatioGI50

Compound	MIC (Staphylococcus aureus [1]) [µg/mL]	MIC (Staphylococcus aureus [2]) [µg/mL]	MIC [5] [µg/mL]	MIC [6] [µg/mL]	MIC (Pseudomonas aeruginosa [9]) [µg/mL]	MIC (Pseudomonas aeruginosa [10]) [µg/mL]	MIC [11] [µg/mL]	MIC [12] [µg/mL]	MIC [13] [µg/mL]	MIC [14] [µg/mL]	MIC [15] [µg/mL]	MIC [16] [µg/mL]	MIC [17] [µg/mL]	MIC [18] [µg/mL]	GI50 (Trypanosoma brucei) [µM]	MIC (Trypanosoma brucei) [µM]	GI50 at 24 h [19] [µM]	MIC (HL-60) [µM]	selectivity ratio [20]	selectivity ratio [21]	also measured
CO[C@H]([C@H](C)[C@H]1O[C@@]2(CC[C@@](C)([C@H]3CC[C@@](CO)([C@@H]4O[C@@H]([C@H]5O[C@@](O)(COC(=O)NCCCl)[C@H](C)C[C@@H]5C)C[C@@H]4C)O3)O2)C[C@H](O)[C@H]1C)[C@H](C)C(=O)O	2 (≈ 2.57 µM)	2 (≈ 2.57 µM)	2 (≈ 2.57 µM)	8 (≈ 10.3 µM)	> 256	> 256	2 (≈ 2.57 µM)	4 (≈ 5.14 µM)	4 (≈ 5.14 µM)	4 (≈ 5.14 µM)	4 (≈ 5.14 µM)	4 (≈ 5.14 µM)	4 (≈ 5.14 µM)	4 (≈ 5.14 µM)	3.48	10 (≈ 7.78 µg/mL)	22.4	100 (≈ 77.8 µg/mL)	10	6.4	MIC (Staphylococcus aureus [3]): 4 µg/mL (≈ 5.14 µM); MIC (Staphylococcus aureus [4]): 2 µg/mL (≈ 2.57 µM); MIC (Escherichia coli [7]): > 256 µg/mL; MIC (Escherichia coli [8]): > 256 µg/mL
CCCNC(=O)OC[C@]1(O)O[C@H]([C@H]2C[C@H](C)[C@H]([C@]3(CO)CC[C@H]([C@]4(C)CC[C@]5(C[C@H](O)[C@@H](C)[C@@H]([C@@H](C)[C@@H](OC)[C@H](C)C(=O)O)O5)O4)O3)O2)[C@@H](C)C[C@H]1C	2 (≈ 2.64 µM)	2 (≈ 2.64 µM)	4 (≈ 5.28 µM)	8 (≈ 10.6 µM)	> 256	> 256	2 (≈ 2.64 µM)	4 (≈ 5.28 µM)	4 (≈ 5.28 µM)	4 (≈ 5.28 µM)	4 (≈ 5.28 µM)	4 (≈ 5.28 µM)	4 (≈ 5.28 µM)	4 (≈ 5.28 µM)	2.94	10 (≈ 7.58 µg/mL)	24.5	100 (≈ 75.8 µg/mL)	10	8.3	MIC (Staphylococcus aureus [3]): 2 µg/mL (≈ 2.64 µM); MIC (Staphylococcus aureus [4]): 4 µg/mL (≈ 5.28 µM); MIC (Escherichia coli [7]): > 256 µg/mL; MIC (Escherichia coli [8]): > 256 µg/mL
CCCCCCCCCC(=O)OC[C@]1(O)O[C@H]([C@H]2C[C@H](C)[C@H]([C@]3(CO)CC[C@H]([C@]4(C)CC[C@]5(C[C@H](O)[C@@H](C)[C@@H]([C@@H](C)[C@@H](OC)[C@H](C)C(=O)O)O5)O4)O3)O2)[C@@H](C)C[C@H]1C	2 (≈ 2.42 µM)	1 (≈ 1.21 µM)	2 (≈ 2.42 µM)	2 (≈ 2.42 µM)	> 256	> 256	1 (≈ 1.21 µM)	2 (≈ 2.42 µM)	2 (≈ 2.42 µM)	2 (≈ 2.42 µM)	2 (≈ 2.42 µM)	2 (≈ 2.42 µM)	2 (≈ 2.42 µM)	2 (≈ 2.42 µM)	0.038	1 (≈ 0.827 µg/mL)	10	100 (≈ 82.7 µg/mL)	100	263	MIC (Staphylococcus aureus [3]): 2 µg/mL (≈ 2.42 µM); MIC (Staphylococcus aureus [4]): 2 µg/mL (≈ 2.42 µM); MIC (Escherichia coli [7]): > 256 µg/mL; MIC (Escherichia coli [8]): > 256 µg/mL
CO[C@H]([C@H](C)[C@H]1O[C@@]2(CC[C@@](C)([C@H]3CC[C@@](CO)([C@@H]4O[C@@H]([C@H]5O[C@@](O)(COC(=O)NCc6ccccc6)[C@H](C)C[C@@H]5C)C[C@@H]4C)O3)O2)C[C@H](O)[C@H]1C)[C@H](C)C(=O)O	1 (≈ 1.24 µM)	1 (≈ 1.24 µM)	1 (≈ 1.24 µM)	2 (≈ 2.48 µM)	> 256	> 256	1 (≈ 1.24 µM)	2 (≈ 2.48 µM)	2 (≈ 2.48 µM)	2 (≈ 2.48 µM)	2 (≈ 2.48 µM)	2 (≈ 2.48 µM)	2 (≈ 2.48 µM)	2 (≈ 2.48 µM)	0.31	1 (≈ 0.806 µg/mL)	19.5	100 (≈ 80.6 µg/mL)	100	62.9	MIC (Staphylococcus aureus [3]): 1 µg/mL (≈ 1.24 µM); MIC (Staphylococcus aureus [4]): 2 µg/mL (≈ 2.48 µM); MIC (Escherichia coli [7]): > 256 µg/mL; MIC (Escherichia coli [8]): > 256 µg/mL
CCNC(=O)OC[C@]1(O)O[C@H]([C@H]2C[C@H](C)[C@H]([C@]3(CO)CC[C@H]([C@]4(C)CC[C@]5(C[C@H](O)[C@@H](C)[C@@H]([C@@H](C)[C@@H](OC)[C@H](C)C(=O)O)O5)O4)O3)O2)[C@@H](C)C[C@H]1C	8 (≈ 10.8 µM)	4 (≈ 5.38 µM)	8 (≈ 10.8 µM)	16 (≈ 21.5 µM)	> 256	> 256	8 (≈ 10.8 µM)	8 (≈ 10.8 µM)	8 (≈ 10.8 µM)	4 (≈ 5.38 µM)	8 (≈ 10.8 µM)	8 (≈ 10.8 µM)	16 (≈ 21.5 µM)	16 (≈ 21.5 µM)	3.05	10 (≈ 7.44 µg/mL)	85.8	100 (≈ 74.4 µg/mL)	10	28.1	MIC (Staphylococcus aureus [3]): 8 µg/mL (≈ 10.8 µM); MIC (Staphylococcus aureus [4]): 8 µg/mL (≈ 10.8 µM); MIC (Escherichia coli [7]): > 256 µg/mL; MIC (Escherichia coli [8]): > 256 µg/mL
Cc1ccc(C(=O)Nc2ccc(S(=O)(=O)O)c3cc(S(=O)(=O)O)cc(S(=O)(=O)O)c23)cc1NC(=O)c1cccc(NC(=O)Nc2cccc(C(=O)Nc3cc(C(=O)Nc4ccc(S(=O)(=O)O)c5cc(S(=O)(=O)O)cc(S(=O)(=O)O)c45)ccc3C)c2)c1 [SURAMIN]															0.05	1 (≈ 1.3 µg/mL)	> 100	> 100	> 100	> 2000	
CO[C@H]([C@H](C)[C@H]1O[C@@]2(CC[C@@](C)([C@H]3CC[C@@](CO)([C@@H]4O[C@@H]([C@H]5O[C@@](O)(COC(=O)NC(=O)CCl)[C@H](C)C[C@@H]5C)C[C@@H]4C)O3)O2)C[C@H](O)[C@H]1C)[C@H](C)C(=O)O	2 (≈ 2.52 µM)	1 (≈ 1.26 µM)	2 (≈ 2.52 µM)	2 (≈ 2.52 µM)	> 256	> 256	8 (≈ 10.1 µM)	16 (≈ 20.2 µM)	16 (≈ 20.2 µM)	8 (≈ 10.1 µM)	16 (≈ 20.2 µM)	32 (≈ 40.4 µM)	16 (≈ 20.2 µM)	16 (≈ 20.2 µM)	0.0047	0.1 (≈ 0.0792 µg/mL)	3.51	10 (≈ 7.92 µg/mL)	100	746	MIC (Staphylococcus aureus [3]): 2 µg/mL (≈ 2.52 µM); MIC (Staphylococcus aureus [4]): 2 µg/mL (≈ 2.52 µM); MIC (Escherichia coli [7]): > 256 µg/mL; MIC (Escherichia coli [8]): > 256 µg/mL
O=C(O)c1cn(C2CC2)c2cc(N3CCNCC3)c(F)cc2c1=O [CIPROFLOXACIN]	0.25 (≈ 0.754 µM)	0.5 (≈ 1.51 µM)	0.5 (≈ 1.51 µM)	0.25 (≈ 0.754 µM)	< 0.125	< 0.125	4 (≈ 12.1 µM)	≤ 0.125	64 (≈ 193 µM)	≤ 0.125	≤ 0.125	16 (≈ 48.3 µM)	≤ 0.125	≤ 0.125							
